Paper PMC6980355 (Journal of medicinal chemistry, 2019)
In brackets after ≈: the same amount, converted by molar mass.

Key:
[1] = test system: E. coli (ΔtolC); format: cell-based; details: for MIC E. coli (ΔtolC): knockout of efflux pump component TolC; for MIC E. coli (ΔtolC) +PMBN: PMBN 8 μg/mL
[2] = test system: P. aeruginosa (ΔmexAB, etc.); format: cell-based; details: knockouts of MexAB-OprM, MexCD-OprJ, MexEF-OprN
[3] = test system: E. coli (ATCC 25922); assay: Bacterial Cytological Profiling; format: cell-based; details: ~3-fold the MIC for 2 hours (for 1); fluorescence microscopy
[4] = target: P. aeruginosa BC (Pseudomonas aeruginosa, UniProt P37798); assay: P. aeruginosa BC enzyme assay; details: relative to parent 4a
[5] = test system: P. aeruginosa mexT mutants; format: cell-based; details: for potency reduction by any mexT mutation: any of the three individual mexT mutations
[6] = pKa; format: physicochemical

Chain of P. aeruginosa BC (P37798 whole entry): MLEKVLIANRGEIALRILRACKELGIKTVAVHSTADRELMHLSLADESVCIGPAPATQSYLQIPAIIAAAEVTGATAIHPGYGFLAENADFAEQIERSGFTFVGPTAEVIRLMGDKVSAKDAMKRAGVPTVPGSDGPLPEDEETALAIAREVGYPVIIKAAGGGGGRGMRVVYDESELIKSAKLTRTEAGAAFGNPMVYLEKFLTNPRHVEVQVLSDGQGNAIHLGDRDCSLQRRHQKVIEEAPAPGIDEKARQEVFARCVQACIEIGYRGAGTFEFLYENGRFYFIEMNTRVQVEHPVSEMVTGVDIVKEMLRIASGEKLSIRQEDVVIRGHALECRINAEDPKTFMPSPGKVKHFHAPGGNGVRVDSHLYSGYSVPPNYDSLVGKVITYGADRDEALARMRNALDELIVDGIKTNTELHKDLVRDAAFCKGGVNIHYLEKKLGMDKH

| SMILES | MIC E. coli (ΔtolC) [1] | MIC E. coli (ΔtolC) +PMBN [1] | MIC P. aeruginosa (ΔmexAB, etc.) [2] | other results |
| --- | --- | --- | --- | --- |
| Nc1ncc2cc(-c3c(Cl)cccc3Cl)c(N)nc2n1 [4a] | 0.5 µg/mL (≈ 1.63 µM) | 0.25 µg/mL (≈ 0.817 µM) | 16 µg/mL (≈ 52.3 µM) | – |
| Nc1ncc2cc(-c3ccccc3-c3ccccc3)c(N)nc2n1 [4b, 6-([1,1'-biphenyl]-2-yl)pyrido[2,3-d]pyrimidine-2,7-diamine] | 0.5 µg/mL (≈ 1.6 µM) | 0.25 µg/mL (≈ 0.798 µM) | – | – |
| Nc1ncc2cc(-c3ccccc3-c3cccnc3)c(N)nc2n1 [4c, 6-[2-(3-pyridyl)phenyl]pyrido[2,3-d]pyrimidine-2,7-diamine] | 2 µg/mL (≈ 6.36 µM) | 0.5 µg/mL (≈ 1.59 µM) | 16 µg/mL (≈ 50.9 µM) | – |
| Nc1ncc2cc(-c3c(Cl)cccc3-c3cccnc3)c(N)nc2n1 [4d, 6-[2-chloro-6-(3-pyridyl)phenyl]pyrido[2,3-d]pyrimidine-2,7-diamine] | – | – | 4 µg/mL (≈ 11.5 µM) | – |
| CC(C)COc1cccc(Cl)c1-c1cc2cnc(N)nc2nc1N [4f, 6-(2-chloro-6-isobutoxy-phenyl)pyrido[2,3-d]pyrimidine-2,7-diamine] | 0.25 µg/mL (≈ 0.727 µM) | – | – | – |
| Nc1ncc2cc(-c3c(Cl)cccc3Cl)c(N3CCC(N)(CO)C3)nc2n1 (stereo not drawn) [13c, [3-amino-1-[2-amino-6-(2,6-dichlorophenyl)pyrido[2,3-d]pyrimidin-7-yl]pyrrolidin-3-yl]methanol] | 1 µg/mL (≈ 2.47 µM) | – | – | – |
| NCC1(F)CCN(c2nc3nc(N)ncc3cc2-c2c(Cl)cccc2Cl)C1 (stereo not drawn) [13d, 7-[3-(aminomethyl)-3-fluoro-pyrrolidin-1-yl]-6-(2,6-dichlorophenyl)pyrido[2,3-d]pyrimidin-2-amine] | – | 1 µg/mL (≈ 2.46 µM) | – | – |
| NCC1(O)CCN(c2nc3nc(N)ncc3cc2-c2c(Cl)cccc2Cl)C1 (stereo not drawn) [13e, 1-[2-amino-6-(2,6-dichlorophenyl)pyrido[2,3-d]pyrimidin-7-yl]-3-(aminomethyl)pyrrolidin-3-ol] | 1 µg/mL (≈ 2.47 µM) | – | >64 µg/mL | – |
| NCC1CCN(c2nc3nc(N)ncc3cc2-c2c(Cl)cccc2Cl)C1 (stereo not drawn) [13f, 7-[3-(aminomethyl)pyrrolidin-1-yl]-6-(2,6-dichlorophenyl)pyrido[2,3-d]pyrimidin-2-amine] | – | – | – | cytological profile [3]: cytological profiles very similar to each other and to parent compound 1; improvement in BC inhibition (IC50) compared to 4a [4]: 5 fold |
| NCC1CCN(c2nc3nc(N)ncc3cc2-c2c(Cl)cccc2Cl)CC1 [13g, 7-[4-(aminomethyl)-1-piperidyl]-6-(2,6-dichlorophenyl)pyrido[2,3-d]pyrimidin-2-amine] | 1 µg/mL (≈ 2.48 µM) | – | 64 µg/mL (≈ 159 µM) | – |
| Nc1ncc2cc(-c3c(Cl)cccc3Cl)c(N3C[C@@H]4[C@@H](N)[C@@H]4C3)nc2n1 [13h, 7-((1R,5S,6s)-6-amino-3-azabicyclo[3.1.0]hexan-3-yl)-6-(2,6-dichlorophenyl)pyrido[2,3-d]pyrimidin-2-amine] | – | – | – | improvement in BC inhibition (IC50) compared to 4a [4]: ~10 fold |
| Nc1ncc2cc(-c3c(Cl)cccc3-c3cccnc3)c(N3C[C@@H]4[C@@H](N)[C@@H]4C3)nc2n1 [14a, 7-[(1R,5S)-6-amino-3-azabicyclo[3.1.0]hexan-3-yl)-6-[2-chloro-6-(3-pyridyl)phenyl]pyrido[2,3-d]pyrimidin-2-amine] | 0.03 µg/mL (≈ 0.0698 µM) | – | – | potency reduction by any mexT mutation [5]: unaffected |
| Nc1ncc2cc(-c3c(Cl)cccc3-c3ccncc3)c(N3C[C@@H]4[C@@H](N)[C@@H]4C3)nc2n1 [14b, 7-[(1R,5S)-6-amino-3-azabicyclo[3.1.0]hexan-3-yl)-6-[2-chloro-6-(4-pyridyl)phenyl]pyrido[2,3-d]pyrimidin-2-amine] | 0.03 µg/mL (≈ 0.0698 µM) | 0.015 µg/mL (≈ 0.0349 µM) | 2 µg/mL (≈ 4.65 µM) | – |
| COc1ncc(-c2cccc(Cl)c2-c2cc3cnc(N)nc3nc2N2C[C@@H]3[C@@H](N)[C@@H]3C2)cc1F [14c, 7-[(1R,5S)-6-amino-3-azabicyclo[3.1.0]hexan-3-yl)-6-[2-chloro-6-(5-fluoro-6-methoxy-3-pyridyl)phenyl]pyrido[2,3-d]pyrimidin-2-amine] | 0.015 µg/mL (≈ 0.0314 µM) | 0.008 µg/mL (≈ 0.0167 µM) | 2 µg/mL (≈ 4.18 µM) | – |
| Cc1ncc(-c2cccc(Cl)c2-c2cc3cnc(N)nc3nc2N2C[C@@H]3[C@@H](N)[C@@H]3C2)s1 [14d, 7-[(1R,5S)-6-amino-3-azabicyclo[3.1.0]hexan-3-yl)-6-[2-chloro-6-(2-methylthiazol-5-yl)phenyl]pyrido[2,3-d]pyrimidin-2-amine] | 0.008 µg/mL (≈ 0.0178 µM) | – | 1 µg/mL (≈ 2.22 µM) | – |
| CC(C)COc1cccc(Cl)c1-c1cc2cnc(N)nc2nc1N1C[C@@H]2[C@@H](N)[C@@H]2C1 [14e, 7-[(1R,5S)-6-amino-3-azabicyclo[3.1.0]hexan-3-yl)-6-(2-chloro-6-isobutoxy-phenyl)pyrido[2,3-d]pyrimidin-2-amine] | 0.03 µg/mL (≈ 0.0706 µM) | 0.015 µg/mL (≈ 0.0353 µM) | – | potency reduction by any mexT mutation [5]: unaffected; cytological profile [3]: cytological profiles very similar to each other and to parent compound 1 |
| O=C(O)c1cn(C2CC2)c2cc(N3CCNCC3)c(F)cc2c1=O [ciprofloxacin, reference compound] | – | – | – | resistance of mexT mutants to the antibiotic ([5]; data not shown): elevated resistance |
| Nc1ncc2cc(-c3c(Br)cccc3Br)c(N)nc2n1 [compound 1, reference compound] | 0.5 µg/mL (≈ 1.27 µM) | 0.12 µg/mL (≈ 0.304 µM) | 16 µg/mL (≈ 40.5 µM) | pKa [6]: 4.8; potency reduction by any mexT mutation [5]: > 8 fold |
